Molecular target: T1, Haem-containing sGC (Rattus norvegicus, UniProt P20595)
T1 construct: made in house; host or cells: Sf9 insect cells (baculovirus)
Test: Stimulation of recombinant soluble guanylate cyclase (sGC) in vitro, haem-containing enzyme
Assay type: biochemical
From the text: Hoenicka, E. M. Becker, H. Apeler, T. Sirichoke, H. Schroeder, R. Gerzer and J.-P. Stasch, “Purified soluble guanylyl cyclase expressed in a baculovirus/Sf9 system: Stimulation by YC-1, nitric oxide, and carbon oxide”, J. Mol. Med. 77 (1999), 14-23. The haem-free guanylate cyclase is obtained by adding Tween 20 to the sample buffer (0.5% in the final concentration).
The activation of sGC by a test substance is reported as x-fold stimulation of the basal activity.

T1 sequence (P19686 whole entry partner): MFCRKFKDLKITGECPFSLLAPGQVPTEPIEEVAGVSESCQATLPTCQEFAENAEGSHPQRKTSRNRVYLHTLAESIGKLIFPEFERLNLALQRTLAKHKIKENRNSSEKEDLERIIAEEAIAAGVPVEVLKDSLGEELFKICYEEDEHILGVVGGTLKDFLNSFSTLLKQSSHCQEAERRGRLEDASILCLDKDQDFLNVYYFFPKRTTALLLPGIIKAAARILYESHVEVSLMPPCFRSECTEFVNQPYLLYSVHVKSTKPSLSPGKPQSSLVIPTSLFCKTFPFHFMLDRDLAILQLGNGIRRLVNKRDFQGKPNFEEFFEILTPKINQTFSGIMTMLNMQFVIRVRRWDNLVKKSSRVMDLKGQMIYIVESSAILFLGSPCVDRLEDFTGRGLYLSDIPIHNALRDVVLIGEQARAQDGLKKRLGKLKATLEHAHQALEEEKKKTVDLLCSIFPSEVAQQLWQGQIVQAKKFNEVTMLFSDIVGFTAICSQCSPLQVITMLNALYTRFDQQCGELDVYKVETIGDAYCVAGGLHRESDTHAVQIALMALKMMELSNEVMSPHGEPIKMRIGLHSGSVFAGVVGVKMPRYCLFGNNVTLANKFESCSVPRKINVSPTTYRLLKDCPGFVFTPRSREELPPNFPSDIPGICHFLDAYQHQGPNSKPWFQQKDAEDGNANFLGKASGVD
T1 sequence (P20595 whole entry): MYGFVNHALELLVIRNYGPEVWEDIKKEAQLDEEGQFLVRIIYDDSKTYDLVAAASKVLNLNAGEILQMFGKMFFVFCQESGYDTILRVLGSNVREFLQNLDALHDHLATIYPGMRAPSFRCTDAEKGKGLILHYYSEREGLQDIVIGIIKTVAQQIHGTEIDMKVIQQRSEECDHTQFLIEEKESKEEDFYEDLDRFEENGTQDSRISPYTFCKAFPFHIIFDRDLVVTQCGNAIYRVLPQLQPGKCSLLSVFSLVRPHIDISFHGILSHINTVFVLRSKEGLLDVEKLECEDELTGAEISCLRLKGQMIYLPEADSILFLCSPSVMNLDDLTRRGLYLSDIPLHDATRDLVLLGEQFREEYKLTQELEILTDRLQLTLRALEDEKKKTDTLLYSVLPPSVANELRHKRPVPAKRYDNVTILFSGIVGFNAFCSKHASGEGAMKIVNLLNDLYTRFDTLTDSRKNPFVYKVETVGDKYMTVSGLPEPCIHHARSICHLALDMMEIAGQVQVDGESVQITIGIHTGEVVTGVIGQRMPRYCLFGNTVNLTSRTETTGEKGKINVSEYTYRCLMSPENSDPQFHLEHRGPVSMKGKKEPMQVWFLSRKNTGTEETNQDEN

SMILES	Stimulation (x-fold) of recombinant sGC, +0.01 μM DEA/NO (test substance 0.01 μM) [x-fold]	Stimulation (x-fold) of recombinant sGC, +0.01 μM DEA/NO (test substance 0.1 μM) [x-fold]	Stimulation (x-fold) of recombinant sGC, +0.01 μM DEA/NO (test substance 1.0 μM) [x-fold]	Stimulation (x-fold) of recombinant sGC, +0.01 μM DEA/NO (test substance 10 μM) [x-fold]	Stimulation (x-fold) of recombinant sGC, +10 μM ODQ (test substance 0.01 μM) [x-fold]	Stimulation (x-fold) of recombinant sGC, +10 μM ODQ (test substance 0.1 μM) [x-fold]	Stimulation (x-fold) of recombinant sGC, +10 μM ODQ (test substance 1.0 μM) [x-fold]	Stimulation (x-fold) of recombinant sGC, +10 μM ODQ (test substance 10 μM) [x-fold]	Effect of combination with DEA/NO (NO donor) on sGC stimulation	Stimulation (x-fold) of recombinant sGC, Basal (test substance 0.01 μM) [x-fold]	Stimulation (x-fold) of recombinant sGC, Basal (test substance 0.1 μM) [x-fold]	Stimulation (x-fold) of recombinant sGC, Basal (test substance 1.0 μM) [x-fold]	Stimulation (x-fold) of recombinant sGC, Basal (test substance 10 μM) [x-fold]	Stimulation (x-fold) of recombinant sGC, +0.01 μM DEA/NO (test substance 100 μM) [x-fold]	Stimulation (x-fold) of recombinant sGC, +10 μM ODQ (test substance 100 μM) [x-fold]	Stimulation (x-fold) of recombinant sGC, Basal (test substance 100 μM) [x-fold]
[2H]C([2H])([2H])OC(c1ccc(Cl)c(NC(=O)[C@H](c2ccc(Cl)cc2)[C@@H](C)C(F)(F)F)c1)C1(C(=O)O)CC1 (single isomer, unassigned; (+)) [Example 99]	4.0 ± 0.6	4.4 ± 0.8	5.0 ± 1.7	5.3 ± 1.8	4.3 ± 0.4	5.7 ± 0.3	9.2 ± 0.9	10.3 ± 1.3	no synergistic effect	1.0 ± 0.0	1.5 ± 0.2	1.8 ± 0.3	2.6 ± 0.4	–	–	–
C[C@H]([C@H](C(=O)Nc1cc(CC2(C(=O)O)CC2)ccc1Cl)c1ccc(Cl)cc1)C(F)(F)F [Example 50, (+)-1-(4-Chloro-3-{[(2S,3R)-2-(4-chlorophenyl)-4,4,4-trifluoro-3-methylbutanoyl]amino}benzyl)-cyclopropanecarboxylic acid]	7.5 ± 1.8	7.6 ± 1.8	9.0 ± 2.0	13.3 ± 2.2	9.2 ± 1.4	9.6 ± 1.5	12.7 ± 1.5	21.5 ± 2.2	no synergistic effect	1.4 ± 0.1	1.2 ± 0.1	2.6 ± 0.4	6.4 ± 0.6	14.6 ± 2.2	22.6 ± 2.6	9.5 ± 0.9

— patent US9018258B2, “Substituted 1-benzylcycloalkylcarboxylic acids and the use thereof” (Bayer Intellectual Property GmbH, priority 2010, dated 2015)
